Assay results reported in PubChem BioAssay AID2060500 (Molecular Pharmacology Branch, DTP, NCI, 2025).

System: 596521-263-R-J1-PDC complex spheroids, viability % of control
Assay: Anticancer human tumor 596521-263-R-J1-PDC patient-derived soft tissue sarcoma cell line growth inhibition [GQUAD]
Conditions: for IC50: curve of first compound; for viability, T/C: stronger effect = lower value
Text: DNA G-quadruplex Stabilizer Agents in Combinations in Complex Spheroids
A high-throughput screen of multi-cell type tumor spheroids was designed to identify active combinations of DNA G-quadruplex stabilizer agents and targeted small molecules. Complex spheroids include a stromal component modeled by human endothelial cells (HUVEC) and fibroblasts modeled by human mesenchymal stem cells (MSCs). The concentration ranges selected for each drug and investigational agent were based upon clinically achievable concentrations if the clinical Cmax of the agent was known.
Compounds. The drugs and investigational agents: pidnarulex (CX-5461; NSC782164), APTO-253 (NSC789042), BRACO-19 (NSC847499), peposertib (NSC802822), ceralasertib (NSC780249), elimusertib (NSC800525), camonsertib (NSC841442), AZD-1390 (NSC803789), olaparib (NSC753686), talazoparib (NSC767125), ART-558 (NSC835418), sotorasib (NSC818433), MRTX-1133 (NSC836407), SN-38 (NSC673596), topotecan (NSC609699), etoposide (NSC141540), doxorubicin (NSC123127), gemcitabine (NSC613327), 5-fluorouracil (NSC19893), paclitaxel (NSC125973), vemurafenib (NSC761431), panobinostat (NSC761190), R-306465 (JNJ-16241199; NSC773264), adavosertib (NSC754352), TP-3654 (NSC805149), carboplatin (NSC241240), KSQ-4279 (NSC840948), and staurosporine (NSC755774) were obtained from the National Cancer Institute (NCI) Developmental Therapeutics Program Chemical Repository (34). The FDA-approved anticancer drug set is available from the NCI Developmental Therapeutics Program. […] The stock solutions were prepared in dimethyl sulfoxide (DMSO, Sigma-Aldrich, St. Louis, MO, cat. D2650) at 800-fold the tested concentration and stored at -70 degrees C prior to their use. All drugs and investigational agents were tested over a range starting from a high concentration at or near the clinical Cmax and decreasing in half-log increments. If the clinical Cmax for an agent had not been determined, the highest concentration tested was 10 microM.
2.3 Cell Culture. All cells were maintained in an incubator at 37 degrees C and 5% CO2 with 95% humidity. The PDC lines were cultured according to standard operating procedures established by the NCI PDMR. All PDCs were thawed and cultured in Matrigel-coated flasks prepared with a working solution of 1X Ham's F-12 nutrient mix, without supplementation (Invitrogen, cat. 11765054), 100 U/mL penicillin-streptomycin (Invitrogen, cat. 15140122), and 2.5% Matrigel (Corning Inc., cat. 354248) for the first three passages. The 857933-349-R-J2-PDC line was cultured in 6C/Colon 1B media, which includes advanced DMEM/F-12 (Thermo Fisher Scientific, cat. 12634028), 10 mM HEPES (Thermo Fisher Scientific, cat. 15630080), 1X GlutaMAX supplement (Thermo Fisher Scientific, cat. 35050061), 0.1 mg/mL primocin (InvivoGen, cat. ant-pm-2), 10% defined fetal bovine serum, heat inactivated (HyClone Laboratories Inc., cat. SH30070.03HI), 50% L-WRN conditioned media (ATCC, cat. CRL-3276), 1.25 mM N-Acetyl-L-cysteine (Sigma-Aldrich, cat. A9165), 10 mM nicotinamide (Sigma-Aldrich, cat. N0636), 1X B-27 supplement (Thermo Fisher Scientific, cat. 17504044), 1X N-2 supplement (Thermo Fisher Scientific, cat. 17502048), 10 microM Y-27632 dihydrochloride (Tocris Bioscience, cat. 1254), and 50 ng/mL human EGF recombinant protein (Thermo Fisher Scientific, cat. PHG0311). The 485176-168-R4-J1-PDC line was cultured in Panc media, which includes all 6C/Colon 1B media components plus 100 ng/mL human FGF-10 (Thermo Fisher Scientific, cat. 100-26), 500 nM SB-431542 (Selleckchem, cat. S1067), and gastrin (Tocris, cat. 3006).
[…]

[1] = second compound 0.0316 µM, first compound 0.0316 µM
[2] = second compound 0.0316 µM, first compound 0.1 µM
[3] = second compound 0.0316 µM, first compound 0.316 µM
[4] = second compound 0.0316 µM, first compound 1 µM
[5] = second compound 0.0316 µM, first compound 3.16 µM
[6] = second compound 0.0316 µM, first compound 10 µM
[7] = second compound 0.1 µM, first compound 0.0316 µM
[8] = second compound 0.1 µM, first compound 0.1 µM
[9] = second compound 0.1 µM, first compound 0.316 µM
[10] = second compound 0.1 µM, first compound 1 µM
[11] = second compound 0.1 µM, first compound 3.16 µM
[12] = second compound 0.1 µM, first compound 10 µM
[13] = second compound 0.316 µM, first compound 0.0316 µM
[14] = second compound 0.316 µM, first compound 0.1 µM
[15] = second compound 0.316 µM, first compound 0.316 µM
[16] = second compound 0.316 µM, first compound 1 µM
[17] = second compound 0.316 µM, first compound 3.16 µM
[18] = second compound 0.316 µM, first compound 10 µM
[19] = second compound 1 µM, first compound 0.0316 µM
[20] = second compound 1 µM, first compound 0.1 µM
[21] = second compound 1 µM, first compound 0.316 µM
[22] = second compound 1 µM, first compound 1 µM
[23] = second compound 1 µM, first compound 3.16 µM
[24] = second compound 1 µM, first compound 10 µM
[25] = second compound 3.16 µM, first compound 0.0316 µM
[26] = second compound 3.16 µM, first compound 0.1 µM
[27] = second compound 3.16 µM, first compound 0.316 µM
[28] = second compound 3.16 µM, first compound 1 µM
[29] = second compound 3.16 µM, first compound 3.16 µM
[30] = second compound 3.16 µM, first compound 10 µM
[31] = second compound 10 µM, first compound 0.0316 µM
[32] = second compound 10 µM, first compound 0.1 µM
[33] = second compound 10 µM, first compound 0.316 µM
[34] = second compound 10 µM, first compound 1 µM
[35] = second compound 10 µM, first compound 3.16 µM
[36] = second compound 10 µM, first compound 10 µM
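Note: spheroids exposed to drugs for 7 days before viability reading.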

O=C(NO)c1cnc(N2CCN(S(=O)(=O)c3ccc4ccccc4c3)CC2)nc1 + CN(C)c1ccc(Nc2c3ccc(NC(=O)CCN4CCCC4)cc3nc3cc(NC(=O)CCN4CCCC4)ccc23)cc1
IC50 (second compound 0.0316 µM): 112 nM | IC50 (second compound 0.1 µM): 97.3 nM | IC50 (second compound 0.316 µM): 126 nM | IC50 (second compound 1 µM): 112 nM | IC50 (second compound 3.16 µM): 76.9 nM | IC50 (second compound 10 µM): < 31.6 nM | viability, T/C [1]: 77.3% | viability, T/C [2]: 54.4% | viability, T/C [3]: 7.95% | viability, T/C [4]: 0.72% | viability, T/C [5]: 0.35% | viability, T/C [6]: 0.33% | viability, T/C [7]: 76.3% | viability, T/C [8]: 49.4% | viability, T/C [9]: 9.87% | viability, T/C [10]: 0.62% | viability, T/C [11]: 0.38% | viability, T/C [12]: 0.34% | viability, T/C [13]: 76.5% | viability, T/C [14]: 60.9% | viability, T/C [15]: 7.1% | viability, T/C [16]: 0.61% | viability, T/C [17]: 0.29% | viability, T/C [18]: 0.34% | viability, T/C [19]: 74.4% | viability, T/C [20]: 54.7% | viability, T/C [21]: 7.49% | viability, T/C [22]: 0.53% | viability, T/C [23]: 0.35% | viability, T/C [24]: 1.39% | viability, T/C [25]: 65.4% | viability, T/C [26]: 45.4% | viability, T/C [27]: 7.07% | viability, T/C [28]: 0.61% | viability, T/C [29]: 0.37% | viability, T/C [30]: 0.78% | viability, T/C [31]: 48.2% | viability, T/C [32]: 35.6% | viability, T/C [33]: 3.88% | viability, T/C [34]: 0.37% | viability, T/C [35]: 0.37% | viability, T/C [36]: 0.34%

C=CC(=O)N1CCN(c2nc(=O)n(-c3c(C)ccnc3C(C)C)c3nc(-c4c(O)cccc4F)c(F)cc23)C(C)C1 (centres undefined) + Cc1[nH]c2ccc(F)cc2c1-c1nc2c3cccnc3c3ncccc3c2[nH]1
IC50 (second compound 0.0316 µM): > 10000 nM | IC50 (second compound 0.1 µM): > 10000 nM | IC50 (second compound 0.316 µM): > 10000 nM | IC50 (second compound 1 µM): > 10000 nM | IC50 (second compound 3.16 µM): > 10000 nM | IC50 (second compound 10 µM): > 10000 nM | viability, T/C [1]: 91.6% | viability, T/C [2]: 102% | viability, T/C [3]: 98% | viability, T/C [4]: 100% | viability, T/C [5]: 103% | viability, T/C [6]: 69.3% | viability, T/C [7]: 97% | viability, T/C [8]: 97.1% | viability, T/C [9]: 95.2% | viability, T/C [10]: 107% | viability, T/C [11]: 90.8% | viability, T/C [12]: 67.8% | viability, T/C [13]: 91.5% | viability, T/C [14]: 108% | viability, T/C [15]: 89.5% | viability, T/C [16]: 99.7% | viability, T/C [17]: 89.8% | viability, T/C [18]: 67% | viability, T/C [19]: 95.6% | viability, T/C [20]: 82.5% | viability, T/C [21]: 99.8% | viability, T/C [22]: 97.5% | viability, T/C [23]: 90.8% | viability, T/C [24]: 75.8% | viability, T/C [25]: 90.7% | viability, T/C [26]: 88.2% | viability, T/C [27]: 91.9% | viability, T/C [28]: 95.1% | viability, T/C [29]: 90.8% | viability, T/C [30]: 73.3% | viability, T/C [31]: 71% | viability, T/C [32]: 72% | viability, T/C [33]: 83.1% | viability, T/C [34]: 72.1% | viability, T/C [35]: 85.3% | viability, T/C [36]: 56.4%
